Assay results reported in ChEMBL document CHEMBL3044624, “Cycloate, an inhibitor of fatty acid elongase, modulates the metabolism of very-long-side-chain alkylresorcinols in rye seedlings” (Pest Manag Sci, 2009).

Tests used:
Secale cereale [1] = experiment: Toxicity against green Secale cereale (rye) seedlings assessed as fresh biomass of seedling grown at 29 +/-2 degC at 46 uM measured at 5 days after compound-treated seed germination (reference value: 16.33 +/-0.24 g); type: organism-based; conditions: in vivo, 120 h
Secale cereale [2] = experiment: Toxicity against green Secale cereale (rye) seedlings assessed as dry biomass of seedling grown at 22 +/-2 degC at 46 uM measured at 5 days after compound-treated seed germination (reference value: 3.28 +/-0.02 g); type: organism-based; conditions: in vivo, 120 h
Secale cereale [3] = experiment: Change in alkylresorcinol homologue composition in dry shoots of green Secale cereale (rye) seedlings grown from compound-treated seeds at 22 +/-2 degC assessed as C19:1 content at 46 uM by GC/EI-MS analysis (reference value: 0.20 mg/kg dry weight); type: functional
Secale cereale [4] = experiment: Change in alkylresorcinol homologue composition in dry shoots of green Secale cereale (rye) seedlings grown from compound-treated seeds at 22 +/-2 degC assessed as C17:0 content at 46 uM by GC/EI-MS analysis (reference value: 0.93 mg/kg dry weight); type: functional
Secale cereale [5] = experiment: Change in alkylresorcinol homologue composition in dry shoots of green Secale cereale (rye) seedlings grown from compound-treated seeds at 15 +/-2 degC assessed as C17:1 content at 46 uM by GC/EI-MS analysis (reference value: 0.17 mg/kg dry weight); type: functional
Secale cereale [6] = experiment: Change in alkylresorcinol homologue composition in dry shoots of green Secale cereale (rye) seedlings grown from compound-treated seeds at 22 +/-2 degC assessed as C17:1 content at 46 uM by GC/EI-MS analysis (reference value: 0.21 mg/kg dry weight); type: functional
Secale cereale [7] = experiment: Change in alkylresorcinol homologue composition in dry shoots of green Secale cereale (rye) seedlings grown from compound-treated seeds at 22 +/-2 degC assessed as C15:0 content at 46 uM by GC/EI-MS analysis (reference value: 0.24 mg/kg dry weight); type: functional
Secale cereale [8] = experiment: Change in alkylresorcinol content in dry shoots of green Secale cereale (rye) seedlings grown from compound-treated seeds at 22 +/-2 degC at 46 uM by thin layer chromatography (reference value: 3.13 +/-0.07 mg/kg dry weight); type: functional
Secale cereale [9] = experiment: Toxicity against etiolated Secale cereale (rye) seedlings assessed as dry biomass of seedling grown at 15 +/-2 degC at 46 uM measured at 5 days after compound-treated seed germination (reference value: 1.14 +/-0.01 g); type: organism-based; conditions: in vivo, 120 h
Secale cereale [10] = experiment: Toxicity against etiolated Secale cereale (rye) seedlings assessed as fresh biomass of seedling grown at 22 +/-2 degC at 46 uM measured at 5 days after compound-treated seed germination (reference value: 21.43 +/-0.35 g); type: organism-based; conditions: in vivo, 120 h
Secale cereale [11] = experiment: Toxicity against etiolated Secale cereale (rye) seedlings assessed as fresh biomass of seedling grown at 29 +/-2 degC at 46 uM measured at 5 days after compound-treated seed germination (reference value: 16.03 +/-0.67 g); type: organism-based; conditions: in vivo, 120 h
Secale cereale [12] = experiment: Toxicity against green Secale cereale (rye) seedlings assessed as dry biomass of seedling grown at 15 +/-2 degC at 46 uM measured at 5 days after compound-treated seed germination (reference value: 1.64 +/-0.03 g); type: organism-based; conditions: in vivo, 120 h
Secale cereale [13] = experiment: Change in alkylresorcinol homologue composition in dry shoots of etiolated Secale cereale (rye) seedlings grown from compound-treated seeds at 29 +/-2 degC assessed as C17:0 content at 46 uM by GC/EI-MS analysis (reference value: 0.48 mg/kg dry weight); type: functional
Secale cereale [14] = experiment: Change in alkylresorcinol homologue composition in dry shoots of etiolated Secale cereale (rye) seedlings grown from compound-treated seeds at 15 +/-2 degC assessed as C17:1 content at 46 uM by GC/EI-MS analysis (reference value: 0.51 mg/kg dry weight); type: functional
Secale cereale [15] = experiment: Change in alkylresorcinol homologue composition in dry shoots of etiolated Secale cereale (rye) seedlings grown from compound-treated seeds at 22 +/-2 degC assessed as C17:1 content at 46 uM by GC/EI-MS analysis (reference value: 0.11 mg/kg dry weight); type: functional
Secale cereale [16] = experiment: Change in alkylresorcinol homologue composition in dry shoots of etiolated Secale cereale (rye) seedlings grown from compound-treated seeds at 29 +/-2 degC assessed as C17:1 content at 46 uM by GC/EI-MS analysis (reference value: 0.05 mg/kg dry weight); type: functional
Secale cereale [17] = experiment: Change in alkylresorcinol homologue composition in dry shoots of etiolated Secale cereale (rye) seedlings grown from compound-treated seeds at 29 +/-2 degC assessed as C15:0 content at 46 uM by GC/EI-MS analysis (reference value: 0.09 mg/kg dry weight); type: functional
Secale cereale [18] = experiment: Change in alkylresorcinol homologue composition in dry shoots of etiolated Secale cereale (rye) seedlings grown from compound-treated seeds at 29 +/-2 degC assessed as C23:1 content at 46 uM by GC/EI-MS analysis; type: functional
Secale cereale [19] = experiment: Change in alkylresorcinol homologue composition in dry shoots of etiolated Secale cereale (rye) seedlings grown from compound-treated seeds at 22 +/-2 degC assessed as C21:1 content at 46 uM by GC/EI-MS analysis (reference value: 0.12 mg/kg dry weight); type: functional
Secale cereale [20] = experiment: Change in alkylresorcinol content in dry shoots of etiolated Secale cereale (rye) seedlings grown from compound-treated seeds at 29 +/-2 degC at 46 uM by thin layer chromatography (reference value: 3.03 +/-0.02 mg/kg dry weight); type: functional
Secale cereale [21] = experiment: Change in alkylresorcinol homologue composition in dry shoots of green Secale cereale (rye) seedlings grown from compound-treated seeds at 15 +/-2 degC assessed as C25:0 content at 46 uM by GC/EI-MS analysis (reference value: 0.06 mg/kg dry weight); type: functional
Secale cereale [22] = experiment: Change in alkylresorcinol homologue composition in dry shoots of green Secale cereale (rye) seedlings grown from compound-treated seeds at 22 +/-2 degC assessed as C25:0 content at 46 uM by GC/EI-MS analysis (reference value: 0.11 mg/kg dry weight); type: functional
Secale cereale [23] = experiment: Change in alkylresorcinol homologue composition in dry shoots of green Secale cereale (rye) seedlings grown from compound-treated seeds at 29 +/-2 degC assessed as C23:0 content at 46 uM by GC/EI-MS analysis (reference value: 0.08 mg/kg dry weight); type: functional
Secale cereale [24] = experiment: Change in alkylresorcinol homologue composition in dry shoots of green Secale cereale (rye) seedlings grown from compound-treated seeds at 22 +/-2 degC assessed as C21:1 content at 46 uM by GC/EI-MS analysis (reference value: 0.09 mg/kg dry weight); type: functional
Secale cereale [25] = experiment: Change in alkylresorcinol homologue composition in dry shoots of etiolated Secale cereale (rye) seedlings grown from compound-treated seeds at 15 +/-2 degC assessed as C19:1 content at 46 uM by GC/EI-MS analysis (reference value: 0.54 mg/kg dry weight); type: functional
Secale cereale [26] = experiment: Change in alkylresorcinol homologue composition in dry shoots of green Secale cereale (rye) seedlings grown from compound-treated seeds at 15 +/-2 degC assessed as C19:0 content at 46 uM by GC/EI-MS analysis (reference value: 0.99 mg/kg dry weight); type: functional

With CCSC(=O)N(CC)C1CCCCC1 [CYCLOATE] the Activity (Secale cereale [1]) was 7.02 g, the Activity (Secale cereale [2]) was 2.03 g and the Activity (Secale cereale [3]) was 0.36 mg/kg. For the same molecule, the Activity (Secale cereale [4]) was 1.32 mg/kg, the Activity (Secale cereale [5]) was 0.34 mg/kg and the Activity (Secale cereale [6]) was 0.13 mg/kg. The Activity (Secale cereale [7]) was 0.2 mg/kg, the Activity (Secale cereale [8]) was 3.17 mg/kg and the Activity (Secale cereale [9]) was 0.92 g. The Activity (Secale cereale [10]) was 6.92 g, the Activity (Secale cereale [11]) was 21 g and the Activity (Secale cereale [12]) was 1.12 g. For the same molecule, the Activity (Secale cereale [13]) was 5.52 mg/kg, the Activity (Secale cereale [14]) was 1.25 mg/kg and the Activity (Secale cereale [15]) was 0.11 mg/kg. For the same molecule, the Activity (Secale cereale [16]) was 0.98 mg/kg, the Activity (Secale cereale [17]) was 0.72 mg/kg and the Activity (Secale cereale [18]) was 0.07 mg/kg. The Activity (Secale cereale [19]) was 0.11 mg/kg, the Activity (Secale cereale [20]) was 14.34 mg/kg and the Activity (Secale cereale [21]) was 0.09 mg/kg. The Activity (Secale cereale [22]) was 0.07 mg/kg, the Activity (Secale cereale [23]) was 0.32 mg/kg and the Activity (Secale cereale [24]) was 0.05 mg/kg. For the same molecule, the Activity (Secale cereale [25]) was 1.08 mg/kg and the Activity (Secale cereale [26]) was 1.45 mg/kg.
